Values quoted from earlier work in US20250231185A1, “Coronavirus T Cell Epitopes, Megapools and Uses Thereof” (La Jolla Institute for Immunology, priority 2021, published 2025).
Entries after “also recorded” stand apart in the source; their conditions may differ.

Tested on: CD4+ T cells
Settings: cited from earlier work; for Restriction: T cell subset (CD4 or CD8) recognizing the SARS-CoV-2 epitope; for Allele(s): HLA class II allele(s) identified as MHC restriction elements of the CD4 epitope; for Dominant: SARS-CoV-2-derived CD4 epitopes, Yes = recognized by 3 or more donors/different studies

Substance | Allele(s) (HLA restriction) (CD4-restricted epitopes, HLA class II alleles identified as MHC restriction elements) | Restriction | Allele(s) | Dominant
253 (YIINLIIKNLSKSLT) [compound 253] | DRB1*11:02, DRB1*13:03 |  |  | 
47 (YSRYRIGNYKLNTDH) [compound 47] |  | CD4 |  | 
104 (KQQTVTLLPAADLDDF) [compound 104] |  | CD4 |  | 
88 (WPQIAQFAPSASAFF) [compound 88] |  | CD4 | DQB1*02:02, DQB1*05:03,; also recorded: DRB1*04:04, DRB1*07:01,; also recorded: DRB1*15:01 | Yes (more dominant epitopes are defined by being recognized by 3 or more donors/different studies)
2 (FLLVTLAILTALRLC) [compound 2] |  | CD4 |  | 
96 (TWLTYTGAIKLDDKDPNF) [compound 96] |  | CD4 |  | 
73 (AGNGGDAALALLLLD) [compound 73] |  | CD4 | DQB1*03:01, DQB1*06:02 | Yes (more dominant epitopes are defined by being recognized by 3 or more donors/different studies)
21 (FIASFRLFARTRSMW) [compound 21] |  | CD4 | DQB1*05:03, DRB1*03:01,; also recorded: DRB1*14:01 | 
49 (LNTDHSSSSDNIALL) [compound 49] |  | CD4 |  | 
60 (YYRRATRRIRGGDGK) [compound 60] |  | CD4 | DRB1*13:01, DRB1*14:06 | Yes (more dominant epitopes are defined by being recognized by 3 or more donors/different studies)
3 (LAILTALRLCAYCCN) [compound 3] |  | CD4 | DRB1*01:01, DRB1*11:01 | 
74 (DAALALLLLDRLNQL) [compound 74] |  | CD4 | DQB1*05:01, DQB1*05:03,; also recorded: DQB1*06:02, DRB1*03:01,; also recorded: DRB1*11:01, DRB1*12:01,; also recorded: DRB1*14:01, DRB1*15:01 | Yes (more dominant epitopes are defined by being recognized by 3 or more donors/different studies)
13 (LIFLWLLWPVTLACF) [compound 13] |  | CD4 | DQB1*05:01, DQB1*05:03,; also recorded: DRB1*01:02 | 
40 (TSRTLSYYKLGASQRVA) [compound 40] |  | CD4 |  | Yes (more dominant epitopes are defined by being recognized by 3 or more donors/different studies)
25 (TNILLNVPLHGTILT) [compound 25] |  | CD4 | DRB1*10:01, DRB1*12:02,; also recorded: DRB1*14:01, DRB1*14:06,; also recorded: DRB1*15:01, DRB1*16:02 | Yes (more dominant epitopes are defined by being recognized by 3 or more donors/different studies)
82 (TQAFGRRGPEQTQGN) [compound 82] |  | CD4 |  | 
55 (LTQHGKEDLKFPRGQ) [compound 55] |  | CD4 |  | 
18 (AIAMACLVGLMWLSY) [compound 18] |  | CD4 |  | 
45 (RVAGDSGFAAYSRYR) [compound 45] |  | CD4 |  | 
48 (IGNYKLNTDHSSSSD) [compound 48] |  | CD4 | DRB1*03:01 | 
78 (KKPRQKRTATKAYNV) [compound 78] |  | CD4 |  | Yes (more dominant epitopes are defined by being recognized by 3 or more donors/different studies)
58 (DDQIGYYRRATRRIR) [compound 58] |  | CD4 | DRB1*01:03, DRB1*07:01,; also recorded: DRB1*13:01, DRB1*14:01,; also recorded: DRB1*14:06, DRB1*15:01,; also recorded: DRB1*16:02 | Yes (more dominant epitopes are defined by being recognized by 3 or more donors/different studies)
41 (SRTLSYYKLGASQRV) [compound 41] |  | CD4 | DRB5*01:01, DRB5*01:02 | Yes (more dominant epitopes are defined by being recognized by 3 or more donors/different studies)
85 (LIRQGTDYKHWPQIA) [compound 85] |  | CD4 |  | Yes (more dominant epitopes are defined by being recognized by 3 or more donors/different studies)
61 (TRRIRGGDGKMKDLS) [compound 61] |  | CD4 |  | 
26 (NVPLHGTILTRPLLE) [compound 26] |  | CD4 |  | 
